According to the supplement of paper PMC10307832:

Experiments:
Assay in all cases: relative viability (nuclei count vs DMSO), 5 days (fraction); higher = more cells survive
[1] = compound: C1CCC(CC1)N(CCNCCC2=C3C(=C(C=C2)O)NC(=O)CO3)C(=O)CCNCCC4=CC(=C(C=C4)Cl)Cl [AZ505] + COc1cc2c(Oc3ccc(NC(=O)C4(C(=O)Nc5ccc(F)cc5)CC4)cc3F)ccnc2cc1OCCCN1CCOCC1 [Foretinib] (partner 0.25 µM)
Method in brief: (§1)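 Values are medians from duplicate plates. Each reflects relative viability, defined as the nuclei count of treated wells over that of vehicle wells. Lung cancer cell lines in 1536-well plates were pin-tool dosed one day after seeding with one drug alone or with a fixed anchor-drug dose plus five library-drug doses (not always all listed) in √10 steps, then fixed, stained and imaged at 4× after 5 days.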

[2] = compound: C1CCC(CC1)N(CCNCCC2=C3C(=C(C=C2)O)NC(=O)CO3)C(=O)CCNCCC4=CC(=C(C=C4)Cl)Cl [AZ505] + Nc1ncn([C@H]2C[C@H](O)[C@@H](CO)O2)c(=O)n1 [Decitabine] (partner 2 µM)
Method in brief: as §1

[3] = compound: Cn1c(=O)n(-c2ccc(C(C)(C)C#N)cc2)c2c3cc(-c4cnc5ccccc5c4)ccc3ncc21 [Dactolisib] + CC1(C)CCC(c2ccc(Cl)cc2)=C(CN2CCN(c3ccc(C(=O)NS(=O)(=O)c4ccc(N[C@H](CCN5CCOCC5)CSc5ccccc5)c(S(=O)(=O)C(F)(F)F)c4)cc3)CC2)C1 [Navitoclax] (partner 0.5 µM)
Method in brief: as §1

[4] = compound: Cn1c(=O)n(-c2ccc(C(C)(C)C#N)cc2)c2c3cc(-c4cnc5ccccc5c4)ccc3ncc21 [Dactolisib] + Nc1ncn([C@H]2C[C@H](O)[C@@H](CO)O2)c(=O)n1 [Decitabine] (partner 2 µM)
Method in brief: as §1

Row | Cell Line | relative viability ([1]; first compound 0.08 µM) | relative viability ([1]; first compound 0.253 µM) | relative viability ([1]; first compound 0.8 µM) | relative viability ([1]; first compound 2.53 µM) | relative viability ([1]; first compound 8 µM) | relative viability ([2]; first compound 0.08 µM) | relative viability ([2]; first compound 0.253 µM) | relative viability ([2]; first compound 0.8 µM) | relative viability ([2]; first compound 2.53 µM) | relative viability ([2]; first compound 8 µM) | relative viability ([3]; first compound 0.002 µM) | relative viability ([3]; first compound 0.006325 µM) | relative viability ([3]; first compound 0.02 µM) | relative viability ([3]; first compound 0.06325 µM) | relative viability ([3]; first compound 0.2 µM) | relative viability ([4]; first compound 0.002 µM) | relative viability ([4]; first compound 0.006325 µM) | relative viability ([4]; first compound 0.02 µM) | relative viability ([4]; first compound 0.06325 µM) | relative viability ([4]; first compound 0.2 µM)
1 | NCI-H2023 | 0.743 | 0.916 | 0.869 | 0.854 | 0.776 | 0.196 | 0.242 | 0.228 | 0.255 | 0.26 | 1.11 | 0.95 | 0.816 | 0.204 | 0.201 | 0.224 | 0.225 | 0.218 | 0.115 | 0.0931
2 | LC-2-ad | 0.84 | 0.941 | 0.831 | 0.814 | 0.993 | 0.797 | 0.835 | 0.776 | 0.776 | 0.841 | 0.453 | – | 0.285 | 0.189 | 0.159 | 0.888 | 0.871 | 0.727 | 0.784 | 0.73
3 | NCI-H1703 | – | 0.411 | 0.335 | 0.366 | 0.365 | – | – | – | – | – | 0.875 | 1.03 | 0.684 | 0.365 | 0.229 | – | – | – | – | –
4 | Calu-6 | 0.814 | 0.901 | 0.819 | 0.799 | 0.892 | – | – | – | – | – | 0.972 | 0.794 | 0.703 | 0.411 | 0.259 | – | – | – | – | –
5 | NCI-H1792 | – | – | – | – | – | 0.494 | 0.481 | 0.602 | 0.51 | 0.604 | 0.823 | 0.692 | 0.582 | 0.381 | 0.181 | 0.56 | 0.429 | 0.414 | 0.186 | 0.121
6 | EBC-1 | 0.0937 | 0.0894 | 0.0949 | 0.0895 | 0.121 | – | – | – | – | – | 0.408 | 0.417 | 0.212 | 0.173 | 0.145 | – | – | – | – | –
7 | NCI-H1623 | 0.76 | 0.781 | 0.834 | 0.79 | 0.99 | – | – | – | – | – | – | – | – | – | – | – | – | – | – | –
8 | NCI-H1648 | – | – | – | – | – | – | 0.508 | 0.538 | 0.615 | 0.522 | – | – | – | – | – | 0.478 | 0.476 | 0.595 | 0.452 | 0.343
9 | NCI-H522 | – | – | – | – | – | 0.602 | 0.689 | 0.657 | 0.599 | 0.634 | – | – | – | – | – | 0.797 | 0.723 | 0.751 | 0.62 | 0.533
10 | NCI-H2228 | 0.644 | 0.799 | 0.809 | 0.823 | 0.665 | – | – | – | – | – | 0.875 | 0.699 | 0.551 | 0.241 | 0.215 | – | – | – | – | –
11 | NCI-H1563 | 0.928 | 0.965 | 0.902 | 0.866 | 0.93 | – | – | – | – | – | – | – | – | – | – | – | – | – | – | –
12 | NCI-H1299 | 1.01 | 1.03 | 0.987 | 1.1 | 1.1 | – | – | – | – | – | 1.06 | 1.1 | 1.08 | 0.986 | 1.03 | – | – | – | – | –
13 | NCI-H358 | 0.573 | 0.732 | 0.629 | 0.549 | 0.59 | 0.2 | 0.209 | 0.194 | 0.218 | 0.21 | – | – | – | – | – | 0.303 | 0.204 | 0.202 | 0.141 | 0.127
14 | NCI-H650 | 1.01 | 1.14 | 1.06 | 1.08 | 1.01 | 0.311 | 0.343 | 0.301 | 0.316 | 0.288 | – | – | – | – | – | 0.488 | 0.27 | 0.364 | 0.282 | 0.302
15 | NCI-H661 | 1 | 1.02 | 0.981 | 0.984 | 0.999 | 0.54 | 0.575 | 0.522 | 0.575 | 0.582 | – | – | – | – | – | 0.574 | 0.532 | 0.501 | 0.346 | 0.324
16 | NCI-H2342 | 1.07 | 1.02 | 1.02 | 1.14 | 1.14 | 0.792 | 0.759 | 0.728 | 0.734 | 0.841 | – | – | – | – | – | 0.726 | 0.689 | 0.677 | 0.58 | 0.501
17 | CAL-12T | 1.03 | 1.11 | 1.18 | 1.22 | 1.36 | – | – | – | – | – | 1.38 | 1.17 | 0.681 | 0.264 | 0.25 | – | – | – | – | –
18 | SW 900 | 0.85 | 0.972 | 0.968 | 0.927 | 0.616 | 0.537 | 0.545 | 0.419 | 0.462 | 0.489 | – | – | – | – | – | 0.546 | 0.443 | 0.405 | 0.409 | 0.425
19 | IA-LM | 0.921 | 1.21 | 1.07 | 1.12 | 1.42 | – | – | – | – | – | 0.819 | 0.579 | 0.564 | 0.116 | 0.0832 | – | – | – | – | –
20 | ABC-1 | 0.856 | 1.21 | 0.976 | 1.02 | 0.863 | 1.07 | – | 1.11 | 0.938 | 1.04 | – | – | – | – | – | 1.22 | 1.02 | 1.13 | 0.999 | 0.827
21 | HCC-44 | – | – | – | – | – | 0.902 | 1.03 | 0.869 | 1.01 | 0.945 | 1.06 | 0.982 | 1 | 0.266 | 0.3 | 1.04 | 0.976 | 0.937 | 0.944 | 0.878
